Experimental data reported in the supplement of paper PMC10307832.

Experiments:
Assay in all cases: relative viability (nuclei count vs DMSO), 5 days (fraction); higher = more cells survive
NCI-H1437 = test system: NCI-H1437
Outline: (§1)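 Each reported value is a median over duplicate plates. It expresses relative viability: treated-well nuclei count divided by vehicle-well nuclei count. Lung cancer cell lines in 1536-well plates were dosed by pin tool a day after seeding, alone with one drug or with a fixed anchor-drug dose plus five library-drug doses (not always all listed) in √10 steps, and nuclei were counted after 5 days.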

NCI-H1299 = test system: NCI-H1299
Outline: as §1

SW 1573 = test system: SW 1573
Outline: as §1

A549 = test system: A549
Outline: as §1

IA-LM = test system: IA-LM
Outline: as §1

Calu-6 = test system: Calu-6
Outline: as §1

ABC-1 = test system: ABC-1
Outline: as §1

NCI-H1703 = test system: NCI-H1703
Outline: as §1

SK-MES-1 = test system: SK-MES-1
Outline: as §1

COR-L23 = test system: COR-L23
Outline: as §1

NCI-H1651 = test system: NCI-H1651
Outline: as §1

EBC-1 = test system: EBC-1
Outline: as §1

In the case of CCN(CC)CCCCNc1ncc2cc(-c3cc(OC)cc(OC)c3)c(NC(=O)NC(C)(C)C)nc2n1 + CS(=O)(=O)CCNCc1ccc(-c2ccc3ncnc(Nc4ccc(OCc5cccc(F)c5)c(Cl)c4)c3c2)o1 [Lapatinib] (partner 2 µM), the relative viability (NCI-H1437; first compound 0.01 µM) is reported as 0.809, the relative viability (NCI-H1437; first compound 0.03162 µM) is reported as 0.841 and the relative viability (NCI-H1437; first compound 0.1 µM) is reported as 0.906. It also gave a relative viability (NCI-H1437; first compound 0.3162 µM) of 0.909, a relative viability (NCI-H1437; first compound 1 µM) of 0.653 and a relative viability (NCI-H1299; first compound 0.01 µM) of 1. The relative viability (NCI-H1299; first compound 0.03162 µM) was 0.977, the relative viability (NCI-H1299; first compound 0.1 µM) was 0.995 and the relative viability (NCI-H1299; first compound 0.3162 µM) was 1.05. It also gave a relative viability (NCI-H1299; first compound 1 µM) of 0.912, a relative viability (SW 1573; first compound 0.01 µM) of 1.11 and a relative viability (SW 1573; first compound 0.03162 µM) of 1.1. The relative viability (SW 1573; first compound 0.1 µM) was 1.19, the relative viability (SW 1573; first compound 0.3162 µM) was 0.978 and the relative viability (SW 1573; first compound 1 µM) was 1.12. It also gave a relative viability (A549; first compound 0.01 µM) of 1.11, a relative viability (A549; first compound 0.03162 µM) of 0.957 and a relative viability (A549; first compound 0.1 µM) of 1.45. It also gave a relative viability (A549; first compound 0.3162 µM) of 0.972, a relative viability (A549; first compound 1 µM) of 0.875 and a relative viability (IA-LM; first compound 0.01 µM) of 0.805. It also gave a relative viability (IA-LM; first compound 0.03162 µM) of 0.644, a relative viability (IA-LM; first compound 0.1 µM) of 0.917 and a relative viability (IA-LM; first compound 0.3162 µM) of 0.793. For the same compound, the relative viability (IA-LM; first compound 1 µM) was 1.05, the relative viability (Calu-6; first compound 0.01 µM) was 1.09 and the relative viability (Calu-6; first compound 0.03162 µM) was 1.15. For the same compound, the relative viability (Calu-6; first compound 0.1 µM) was 1.31, the relative viability (Calu-6; first compound 0.3162 µM) was 1.24 and the relative viability (Calu-6; first compound 1 µM) was 1.02. For the same compound, the relative viability (ABC-1; first compound 0.01 µM) was 1.33, the relative viability (ABC-1; first compound 0.03162 µM) was 1.11 and the relative viability (ABC-1; first compound 0.1 µM) was 1.22. For the same compound, the relative viability (ABC-1; first compound 0.3162 µM) was 1.34, the relative viability (ABC-1; first compound 1 µM) was 1.22 and the relative viability (NCI-H1703; first compound 0.01 µM) was 0.912. It also gave a relative viability (NCI-H1703; first compound 0.03162 µM) of 0.819, a relative viability (NCI-H1703; first compound 0.1 µM) of 1.3 and a relative viability (NCI-H1703; first compound 0.3162 µM) of 1.35. The relative viability (NCI-H1703; first compound 1 µM) was 0.774, the relative viability (SK-MES-1; first compound 0.01 µM) was 0.518 and the relative viability (SK-MES-1; first compound 0.03162 µM) was 0.456. For the same compound, the relative viability (SK-MES-1; first compound 0.1 µM) was 0.542, the relative viability (SK-MES-1; first compound 0.3162 µM) was 0.455 and the relative viability (SK-MES-1; first compound 1 µM) was 0.354. The relative viability (COR-L23; first compound 0.01 µM) was 1.09, the relative viability (COR-L23; first compound 0.03162 µM) was 0.973 and the relative viability (COR-L23; first compound 0.1 µM) was 0.943. It also gave a relative viability (COR-L23; first compound 0.3162 µM) of 1.19, a relative viability (COR-L23; first compound 1 µM) of 0.881 and a relative viability (NCI-H1651; first compound 0.01 µM) of 0.896. The relative viability (NCI-H1651; first compound 0.03162 µM) was 1.03, the relative viability (NCI-H1651; first compound 0.1 µM) was 1.18 and the relative viability (NCI-H1651; first compound 0.3162 µM) was 0.844. It also gave a relative viability (NCI-H1651; first compound 1 µM) of 0.554, a relative viability (EBC-1; first compound 0.01 µM) of 0.228 and a relative viability (EBC-1; first compound 0.03162 µM) of 0.231. For the same compound, the relative viability (EBC-1; first compound 0.1 µM) was 0.209, the relative viability (EBC-1; first compound 0.3162 µM) was 0.217 and the relative viability (EBC-1; first compound 1 µM) was 0.208.
